Entries after “also recorded” stand apart in the source; their conditions may differ. Square brackets hold non-standard residues; d marks the D form. Ends that are not written are not given here. dOrn = NCCC[C@@H](N)C(=O)O
system: bacteria; assay: Binding of targeting peptides to microorganisms (Table 3); details: microorganism bound by the targeting peptide; binding in aqueous buffers chosen by peptide solubility, preferably 1x PBS

Substance | Target(s)
PF-238 (RNAVVVTEATFPKYEEEITNYLNRRFGEDWSLKLEKCSVA; Peptide with targeting and/or antimicrobial activity) | S. mutans and S. epidermidis and E. coli and P. aeruginosa and C. albicans and MRSA and S. pneumoniae and E. faecalis
PF-193 (PPHCPPGHAKKGWC; Peptide with targeting and/or antimicrobial activity) | S. epidermidis and M. luteus and E. coli and MRSA and E. faecalis and C. jejuni
PF-324 (HFSLL; Peptide with targeting and/or antimicrobial activity) | C. difficile
PF-200 (GIELKSLIMAQIERWRQA; Peptide with targeting and/or antimicrobial activity) | S. epidermidis and M. luteus and MRSA and E. faecalis and C. jeikeium
MKKLVAALAVIVILTGCVYDPVNYDKIHDQEFQDHLRQNG [PF-252] | S. mutans
PF-337 (YMTKKLVEMAERQMAGK; Peptide with targeting and/or antimicrobial activity) | S. epidermidis
PF-275 (LVSGVANTVKNTAHTVGNTAKHAGHVAADTTVKATKKQQVK; Peptide with targeting and/or antimicrobial activity) | S. mutans
PF-147 (RRPRRRRSGHGQSASAA; Peptide with targeting and/or antimicrobial activity) | S. epidermidis and M. luteus and MRSA
PF-256 (EYFKQVYVKNEKIYSFWICKDLSPKEAAKRAEDILVKLK; Peptide with targeting and/or antimicrobial activity) | S. epidermidis
PF-282 (QNNDTSAWCGSAHKNGNS; Peptide with targeting and/or antimicrobial activity) | S. mutans
PF-285 (VPAKLLRVIDEIPE; Peptide with targeting and/or antimicrobial activity) | S. mutans
PF-217 (DWEFTHKTIPQKK; Peptide with targeting and/or antimicrobial activity) | S. mutans
PF-371 (TFIYNEF; Peptide with targeting and/or antimicrobial activity) | S. epidermidis; also recorded: B. fragilis; also recorded: C. jejuni
PF-162 (GIRRLHSVENLNREISHRMAGLR; Peptide with targeting and/or antimicrobial activity) | S. epidermidis and MRSA
PF-161 (RGRALASTATTRPARRRR; Peptide with targeting and/or antimicrobial activity) | S. epidermidis; also recorded: M. luteus; also recorded: E. coli; also recorded: C. jejuni
PF-248 (ILSKLWFWMINSLGVVLLVSYWLLAKWGVA; Peptide with targeting and/or antimicrobial activity) | S. mutans; also recorded: S. epidermidis; also recorded: M. luteus; also recorded: E. coli; also recorded: P. aeruginosa; also recorded: A. baumannii

same assay, conditions: microorganism the targeting peptide binds; binding in aqueous buffers that varied with peptide solubility, preferably 1x PBS

Substance | Target(s)
1T-249 (VFSVLKHTTWPTRKQSWHDFISILEYSAFFALVIFIFDKLLTLGLAELLKRF; Peptide with targeting and/or antimicrobial activity) [Peptide 1T-249] | F. nucleatum; also recorded: S. sanguinis
1T-222 (RIEASLISAIMFSMFNAIVKFLQK; Peptide with targeting and/or antimicrobial activity) [Peptide 1T-222] | F. nucleatum; also recorded: S. sanguinis
TT-305 (ARNALNMRDVPVDAAIIGIIDGMDEE; Peptide with targeting and/or antimicrobial activity) | F. nucleatum
1T-196 (KPEKEKLDTNTLMKVVNKALSLFDRLLIKFGA; Peptide with targeting and/or antimicrobial activity) [Peptide 1T-196] | F. nucleatum; also recorded: S. sanguinis
1T-192 (ILVLLALQVELDSKFQY; Peptide with targeting and/or antimicrobial activity) [Peptide 1T-192] | S. sanguinis
CHA0 (D[dOrn]KTAA[dOrn]K; bridge (positions not given here); not fully specified (bridges)) | P. fluorescens
TT-311 (AIFDAMHNL; Peptide with targeting and/or antimicrobial activity) | S. mutans; also recorded: S. sobrinus
1T-252 (MKKNLKRFYALVLGFIIGCLFVSILIFIGY; Peptide with targeting and/or antimicrobial activity) [Peptide 1T-252] | F. nucleatum; also recorded: S. sanguinis

same assay, conditions: peptide binding in aqueous buffers that varied depending on peptide solubility; preferably 1x PBS

Substance | Target(s) (microorganism bound by the targeting peptide) | Target(s) (microorganisms bound by the targeting peptide)
PF-791 (IFLTTQNTDYSEHNAA; Peptide with targeting and/or antimicrobial activity) | S. mutans | –
PF-488 (YPNEQGHHKNNLKNIIIE; Peptide with targeting and/or antimicrobial activity) | – | S. mutans; also recorded: E. coli
PF-703 (MTTVDNIVGLVIAVALMAFLFAALLFPEKF; Peptide with targeting and/or antimicrobial activity) | Mycobacteria spp | –
PF-503 (VVTLKDIVAVIEDQGYDVQ; Peptide with targeting and/or antimicrobial activity) | – | S. mutans
PF-C271 (FFPSYYSIIITYF; Peptide with targeting and/or antimicrobial activity) | A. naeslundii; also recorded: F. nucleatum; also recorded: P. gingivalis; also recorded: S. mutans; also recorded: T. denticola | –
PF-796 (YTQSNIPTAYALMLSNKDSI; Peptide with targeting and/or antimicrobial activity) | S. mutans | –
PF-779 (IYGDFFNFYLCDISLKVNGLQPGGPVRTVKLFGQPTGRCTPQ; Peptide with targeting and/or antimicrobial activity) | Mycobacteria spp. | –
PF-C093 (EKLGTMV; Peptide with targeting and/or antimicrobial activity) | A. naeslundii; also recorded: F. nucleatum; also recorded: S. mutans | –
PF-777 (PGADGKLAEASAAIARLVRS; Peptide with targeting and/or antimicrobial activity) | Mycobacteria spp. | –
PF-674 (DGCDSEPALTYR; Peptide with targeting and/or antimicrobial activity) | S. mutans; also recorded: E. coli | –
PF-S007 (VVAGVVLLTALAVGSKRKEKKQIKEIQRLLAATR; Peptide with targeting and/or antimicrobial activity) | S. epidermidis and MRSA | –
PF-669 (RADRIESYPADGDRVITLWRNPYR; Peptide with targeting and/or antimicrobial activity) | Mycobacteria spp | –
PF-C063 (SHFRKGD; Peptide with targeting and/or antimicrobial activity) | A. naeslundii; also recorded: F. nucleatum; also recorded: S. mutans | –
PF-S015 (IENLERGARRPP; Peptide with targeting and/or antimicrobial activity) | S. epidermidis and MRSA and C. jeikeium | –
PF-707 (IDPESIVTTNNKQDNVDEQ; Peptide with targeting and/or antimicrobial activity) | S. mutans; also recorded: E. coli | –
LVLRICTDLFTFIKWTIKQRKS [PF-497] | – | S. mutans; also recorded: B. subtilis; also recorded: E. coli
PF-724 (CYRFLTPKRPTRIS; Peptide with targeting and/or antimicrobial activity) | L. pneumophila | –
PF-481 (DELYEIMDKVIEEFNKDIEQNNNNGNNEDLTENKIN; Peptide with targeting and/or antimicrobial activity) | – | C. jeikeium

same assay, conditions: peptide binding in aqueous buffers varied by peptide solubility; preferably 1x PBS

Substance | Target(s) (microorganism bound by the targeting peptide)
1T-121 (FAKETGFGIGGAQEGWWIIADIYGPNPF; Peptide with targeting and/or antimicrobial activity) [Peptide 1T-121] | S. gordonii; also recorded: S. mitis; also recorded: S. mutans; also recorded: S. oralis; also recorded: S. salivarious; also recorded: S. sanguinis
1T-49 (SLVRIHDQQPWVTRGAFIDAARTCS; Peptide with targeting and/or antimicrobial activity) [Peptide 1T-49] | S. aureus; also recorded: S. epidermidis; also recorded: C. jeikeium; also recorded: P. aeruginosa
1T-106 (DALRRSRSQGRRHR; Peptide with targeting and/or antimicrobial activity) [Peptide 1T-106] | S. gordonii; also recorded: S. mitis; also recorded: S. mutans; also recorded: S. oralis; also recorded: S. salivarious
1T-93 (AMRSVNQA; Peptide with targeting and/or antimicrobial activity) [Peptide 1T-93] | S. epidermidis; also recorded: S. gordonii; also recorded: S. mitis; also recorded: S. mutans; also recorded: S. oralis; also recorded: S. sanguinis
1T-53 (SDILAEMFEKGELQTLVKDAAAKANA; Peptide with targeting and/or antimicrobial activity) [Peptide 1T-53] | P. aeruginosa
1T-125 (DAITGGNPPLSDTDGLRP; Peptide with targeting and/or antimicrobial activity) [Peptide 1T-125] | S. epidermidis; also recorded: S. gordonii; also recorded: S. mutans; also recorded: S. oralis

From patent US9597407B2, “Targeted antimicrobial moieties” (C3 Jian, Inc., priority 2009, dated 2017)
